The values below are quoted from earlier work in US7632826B2, “Use of agonists of the glucocorticosteroid and/or mineralo-corticosteroid receptors, in particular corticosteroids for the treatment of addiction” (Curamentis Ltd., priority 1998, dated 2009).

Structures are written as SMILES.

As to `CC(=O)NCCCS(=O)(=O)O` [acamprosate], the Patients still abstinent (Austria (Whitworth et al., 1996), placebo 21%) is 30%. Also, the “Patients of the verum group still abstinent at end of study” value (German part of the study (Sass et al., 1996), after 48 weeks of treatment, placebo 20%) was 42%. The “Addicted patients who did not achieve permanent abstinence despite treatment” value (average in Europe, placebo 85%) was “approximately 70%”.
